This experiment concerns Jagged1-induced signaling through Notch1. Description: Co-culture Notch reporter (luciferase) assay, Jagged1-induced. In kind it is cell-based. The settings on record: NIH-3T3 co-culture; antibody 0.4-50 μg/ml (Example 4) or 0.016-50 μg/ml (Example 5). The protocol:
To determine whether anti-Jagged antibodies can act as antagonists of Jagged-induced Notch signaling, co-culture experiments were performed essentially as described by Wu et al., Nature 464, 1052-1057 (15 April 2010). NIH-3T3 cells engineered to express Jagged1, as the Notch ligand, were co-cultured with NIH 3T3 cells that stably express Notch1 and that were transiently transfected to express a Notch-responsive TP-1 (12× CSL) firefly luciferase reporter and a constitutively expressed Renilla luciferase reporter (pRL-CMV, Promega).
Antibodies C and D, and their respective affinity-matured descendants, bind to both human and murine Jagged1, and human and murine Jagged2 (e.g., FIG. 10A). […] Signaling was induced by Jagged1 (FIG. 13B, dark gray columns) or by Jagged2 (FIG. 13B, light gray columns) and inhibition was determined as described in Example 4 using the antibodies at concentrations of 0.016-50 μg/ml. Controls included cultures that were not stimulated with ligand and not treated with antibody ([…], Untreated), not stimulated with ligand (FIG. 13B, No Stimulation or 3T3P), treated with 5-10 μg/ml isotype control antibody (FIG. 13B, agD or gD), stimulated with ligand but not treated with antibody (Stim/no AB or No Ab), treated with 5 μM of the gamma-secretase inhibitor DAPT or the DAPT vehicle control of DMSO.

Each structure is given as a SMILES string.

We go through 1 molecule from patent US11702479B2, “Anti-jagged antibodies and methods of use” (Genentech, Inc., priority 2012, dated 2023).

In the case of `C[C@H](NC(=O)Cc1cc(F)cc(F)c1)C(=O)N[C@H]1N=C(c2ccccc2)c2ccccc2N(C)C1=O` [Compound E], the “inhibition of Jagged1-induced Notch reporter expression” value is “reduced to background levels”.
